Source: patent US7851587B2, “Peptides derived from the C2 domain of epsilon PKC” (The Board of Trustees of the Leland Stanford Junior …, priority 2006, dated 2010)
Entries after “also recorded” stand apart in the source; their conditions may differ. Like-named read-outs stand apart in the source and are kept apart here. Ends that are not written are not given here.

Experiments:
[1] = system: intact heart, ex vivo; assay: Ex vivo cardiac protection, ischemia and reperfusion in Langendorff-perfused hearts (TTC staining, CPK release); parameters: species or system Wistar rats
[2] = system: PKC; assay: MARCKS phosphorylation in primary skeletal muscle cells from εPKC knockout mice (Western blot); conditions: primary mouse muscle cells from εPKC knock-out mice; 1 μM peptide for 15 minutes
[3] = system: εPKC; assay: εPKC translocation from the soluble to the particulate fraction in CHO cells (immunoblot); assay type: cell-based; conditions: for εPKC translocation in cells: 500 nM peptide for 15 minutes before sub-maximal 3 nM PMA, relative to control
Method: Upon activation, PKC translocates from the soluble to the particulate cell fraction, which translocation can be monitored by immunoblot analysis (26). It was previously determined that the effect of peptides on PKC translocation is better observed when the cells are treated with a sub-maximal concentration of PMA (22,42). Larger concentrations of PMA, a non-physiological activator, stimulate a greater degree of PKC translocation over translocation stimulated by peptide activators alone (51).
A representative activator (peptide 2) or inhibitor (peptide 7) were preincubated at 500 nM for 15 minutes with cells before sub-optimal stimulation with 3 nM PMA for 7 minutes.
PKC Translocation in Cells—εPKC translocation from the soluble to the particulate fraction in CHO cells was used to assess the relative amount of activated (membrane-bound) εPKC, an assay that has been described previously (42). Evidence of translocation is either by an increase in the amount of PKC in the particulate fraction or by a decrease in the soluble fraction. Briefly, after stimulation, cells were washed with cold PBS, scraped in homogenization buffer, passed through a (25G⅝″) syringe needle, and spun at 100,000 g for 30 min at 4° C. The pellet was then resuspended in homogenization buffer with 1% Triton X-100. Where applicable, the cells were pre-incubated with 500 nM peptide for 15 minutes prior to stimulation. PKC was stimulated with sub-maximal levels of the general PKC activator phorbol 12-myristate 13-acetate (PMA, 3 nM). The samples were then analyzed by Western blot. Antibodies against εPKC were obtained from Santa Cruz Biotechnology (Santa Cruz, Calif.) and used at 1:500 dilution.

[4] = target: T1, εPKC (Mus musculus, UniProt P16054); assay: In vivo PKC translocation in hearts after intraperitoneal injection (immunoblot); parameters: species or system mice; conditions: for translocation of εPKC in hearts in vivo: particulate fraction of mouse hearts, 15 minutes following IP injection of 20 nmol peptide, relative to control TAT peptide
T1 construct: from tissue; host or cells: mouse heart
T1 sequence (P16054 1-737): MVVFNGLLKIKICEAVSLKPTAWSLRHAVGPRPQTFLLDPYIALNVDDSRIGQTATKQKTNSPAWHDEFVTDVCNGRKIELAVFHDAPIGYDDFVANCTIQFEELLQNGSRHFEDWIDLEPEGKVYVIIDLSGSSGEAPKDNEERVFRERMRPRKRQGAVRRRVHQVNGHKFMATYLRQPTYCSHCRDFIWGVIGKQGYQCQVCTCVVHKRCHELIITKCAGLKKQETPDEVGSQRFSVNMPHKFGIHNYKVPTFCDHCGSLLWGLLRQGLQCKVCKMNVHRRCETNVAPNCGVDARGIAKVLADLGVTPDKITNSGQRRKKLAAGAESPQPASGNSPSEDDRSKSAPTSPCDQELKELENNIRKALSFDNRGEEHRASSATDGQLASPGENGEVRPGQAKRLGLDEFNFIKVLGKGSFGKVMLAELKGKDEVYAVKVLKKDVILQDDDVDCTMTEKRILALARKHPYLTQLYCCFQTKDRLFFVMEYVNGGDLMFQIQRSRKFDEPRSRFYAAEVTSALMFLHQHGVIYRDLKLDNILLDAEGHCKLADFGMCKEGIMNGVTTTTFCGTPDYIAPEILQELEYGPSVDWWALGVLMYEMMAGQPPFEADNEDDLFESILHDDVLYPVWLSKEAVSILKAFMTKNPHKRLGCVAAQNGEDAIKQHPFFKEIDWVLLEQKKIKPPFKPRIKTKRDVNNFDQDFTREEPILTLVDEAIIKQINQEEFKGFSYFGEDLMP
Method: (§1) In a further in vivo study, peptide activity and selectivity were examined using representative peptides injected into mice via intraperitoneal (IP) injection, and the amount of εPKC, δPKC, αPKC, and ζPKC translocation in hearts was determined. These four PKC isozymes represent each of the three major sub-families of PKC. In particular, εPKC and δPKC are members of the novel PKC family (calcium insensitive, diacylglycerol sensitive), αPKC is a classical PKC (calcium and diacylglycerol sensitive), and ζPKC is an atypical PKC (calcium and diacylglycerol insensitive).
(§2) Levels of εPKC, δPKC, αPKC, and ζPKC in the particulate fraction of mouse hearts were assayed by immunoblot 15 minutes following IP injection of 20 nmol each peptides (FIGS. 5A-5D). The accompanying graphs show quantitation based on two experiments, calculated as fold increase (+/−standard error) in the particulate fraction/total fraction, normalized to the actin loading control, and relative to the control TAT peptide. […] Since peptides 11 and 13 caused MARCKS phosphorylation in myocytes from the εPKC knockout mice (FIG. 3), it is concluded that they activated several PKC isozymes.
(§3) Isozyme Selectivity In Vivo—To determine that activator peptides causing MARCKS phosphorylation and decreasing ischemia-reperfusion damage in heart also induce εPKC translocation in vivo, we injected the respective peptides at 20 nmol in 200 μl saline into the peritoneum of 15-20 g mice, as previously reported (48). Fifteen minutes later, the mice were sacrificed and heart and brain were collected. Soluble and particulate fractions from mouse tissue were prepared as previously described (48). ε, ζ and δPKC translocation were determined by Western blot analysis using selective anti-PKC antibodies from Santa Cruz Biotechnology, Santa Cruz, Calif. and used at 1:500 dilution. Sarcomeric actin (1:1000, Sigma) was used as a loading control for all fractions.

[5] = system: intact heart, ex vivo; conditions: pre-treatment, Langendorff apparatus; refs (4,43); cited from earlier work
[6] = target: T2, αPKC (Mus musculus, UniProt P20444); assay: In vivo PKC translocation in hearts after intraperitoneal injection (immunoblot); parameters: species or system mice; conditions: particulate fraction of mouse hearts, 15 minutes following IP injection of 20 nmol peptide; relative to control TAT peptide
T2 construct: from tissue; host or cells: mouse heart
Method: as §1, §2, §3

[7] = target: T3, δPKC (Mus musculus, UniProt P28867); assay: as above; parameters: species or system mice; conditions: particulate fraction of mouse hearts, 15 minutes following IP injection of 20 nmol peptide; relative to control TAT peptide
T3 construct: from tissue; host or cells: mouse heart
T3 sequence (P28867 whole entry): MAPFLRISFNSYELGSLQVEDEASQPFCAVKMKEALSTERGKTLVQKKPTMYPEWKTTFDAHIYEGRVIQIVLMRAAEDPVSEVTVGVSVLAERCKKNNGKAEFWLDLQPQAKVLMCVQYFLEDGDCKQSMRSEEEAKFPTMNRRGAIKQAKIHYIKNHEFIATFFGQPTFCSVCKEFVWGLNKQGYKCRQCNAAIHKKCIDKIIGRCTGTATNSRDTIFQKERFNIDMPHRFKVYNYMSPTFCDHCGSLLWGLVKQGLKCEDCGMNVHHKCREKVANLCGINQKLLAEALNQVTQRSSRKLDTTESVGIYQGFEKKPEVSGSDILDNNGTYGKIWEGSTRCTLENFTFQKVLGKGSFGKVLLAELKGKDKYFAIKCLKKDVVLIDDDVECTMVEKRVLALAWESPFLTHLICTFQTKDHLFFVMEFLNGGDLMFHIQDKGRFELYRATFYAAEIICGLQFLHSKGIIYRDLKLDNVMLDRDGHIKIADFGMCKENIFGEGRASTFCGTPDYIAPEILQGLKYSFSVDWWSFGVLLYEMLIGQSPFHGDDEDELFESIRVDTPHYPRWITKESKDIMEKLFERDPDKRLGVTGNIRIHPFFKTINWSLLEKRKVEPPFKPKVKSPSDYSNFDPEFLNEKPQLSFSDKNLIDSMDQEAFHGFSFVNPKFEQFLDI
Method: as §1, §2, §3

[8] = system: PKC; conditions: primary mouse muscle cells, wild-type; 1 μM peptide for 15 or 30 minutes prior to cell lysis
[9] = system: ηPKC; conditions: ηPKC-derived peptides; Ref. (1, 63); cited from earlier work
ηPKC, sequence (P24723 whole entry, the tested form may be a part): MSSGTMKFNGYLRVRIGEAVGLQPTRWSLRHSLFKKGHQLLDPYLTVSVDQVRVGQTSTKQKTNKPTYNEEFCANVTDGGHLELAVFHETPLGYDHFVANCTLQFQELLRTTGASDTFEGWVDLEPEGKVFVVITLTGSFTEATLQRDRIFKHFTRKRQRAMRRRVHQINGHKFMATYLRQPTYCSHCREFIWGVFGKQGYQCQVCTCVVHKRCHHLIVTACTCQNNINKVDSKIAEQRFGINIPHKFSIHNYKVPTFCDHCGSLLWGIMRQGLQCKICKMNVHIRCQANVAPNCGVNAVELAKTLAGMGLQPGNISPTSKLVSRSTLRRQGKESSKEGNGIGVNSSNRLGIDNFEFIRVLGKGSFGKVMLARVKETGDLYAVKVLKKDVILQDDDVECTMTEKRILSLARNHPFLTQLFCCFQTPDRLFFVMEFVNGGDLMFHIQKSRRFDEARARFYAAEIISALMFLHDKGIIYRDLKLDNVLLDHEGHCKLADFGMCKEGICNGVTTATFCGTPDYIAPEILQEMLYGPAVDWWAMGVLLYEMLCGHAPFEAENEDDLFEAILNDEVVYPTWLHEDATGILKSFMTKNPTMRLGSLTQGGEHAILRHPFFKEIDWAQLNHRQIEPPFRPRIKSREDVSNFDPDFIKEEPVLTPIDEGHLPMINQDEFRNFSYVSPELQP

[10] = 1 μM TAT-conjugated peptide 10 minutes prior to 40 minutes global ischemia, 60 minutes reperfusion (peptide 9: 30 minutes ischemia), † and ‡ = trend towards cardioprotective (n = 5, n = 3)

Row | Substance | MARCKS phosphorylation in εKO Cells [2] | εPKC translocation in cells [3] | Cardioprotective ex vivo [1] | further results
1 | CAVGPRPQT (not fully specified (residue 1)) [Peptide 2] | not in KO; also recorded: no effect | activator | – | Cardioprotective ex vivo [1, 10]: cardioprotective and yes; increase in the amount of εPKC translocation compared to pre-treatment with the TAT control peptide ([3]; 500 nM peptide 15 minutes, then 3 nM PMA 7 minutes, n=5, p<0.05): approximately 30%
2 | CEAVSLKPT [εV1-2, reference compound] | no effect | decrease in the amount of εPKC in the pellet fraction; also recorded: inhibitor | – | Cardioprotective ex vivo [1, 10]: no
3 | CEFVTDV [Peptide 8] | not conclusive | activator | not cardioprotective and no | –
4 | CFLLDPY [Peptide 3] | not in KO; also recorded: no effect | activator | trend towards cardioprotection and yes‡ | –
5 | CFNGLLKIKI (not fully specified (residue 1)) [Peptide 1] | not in KO; also recorded: no effect | activator | – | Cardioprotective ex vivo [1, 10]: trend towards cardioprotection and yes†; translocation of εPKC in hearts in vivo [4]: caused translocation of εPKC
6 | CHDAPIGYD [ψεRACK, reference compound] | not in KO; also recorded: no effect | activator | – | Cardioprotective ex vivo [1, 10]: cardioprotective and yes; translocation of εPKC in hearts in vivo [4]: caused translocation of εPKC; damage (infarction) of hearts subjected to ischemia and reperfusion ex vivo [5]: reduced damage
7 | CHFEDWID (not fully specified; also: TAT47-57 carrier linked via Cys disulfide) [Peptide 11] | increased MARCKS phosphorylation; also recorded: activator | – | not cardioprotective and no | translocation of αPKC in hearts in vivo [6]: substantial translocation; translocation of δPKC in hearts in vivo [7]: substantial translocation; translocation of εPKC in hearts in vivo [4]: substantial translocation
8 | CIELAVF [Peptide 10] | not conclusive | activator | no | MARCKS phosphorylation in WT Cells [8]: activator
9 | CLEPEGK [Peptide 12] | – | decrease in the amount of εPKC in the pellet fraction; also recorded: inhibitor | – | –
10 | CLSETKPAV (not fully specified; also: TAT47-57 conjugated) [scrambled εV1-2, reference compound] | no effect | stimulated εPKC translocation; also recorded: activator | not cardioprotective and no | translocation of δPKC in hearts in vivo [7]: did not cause an increase; PKC translocation, in vivo ([4]; mouse hearts, 15 minutes after IP injection of 20 nmol peptide, the cell words say which of ε, δ, α, ζPKC translocate): no; translocation of εPKC in hearts in vivo [4]: did not cause an increase
11 | CNGRKI (not fully specified; also: TAT47-57 carrier linked via Cys disulfide) [Peptide 9] | not in KO; also recorded: no effect | activator | cardioprotective and yes | –
12 | CPAWHD [Peptide 7] | – | decrease in the amount of εPKC in the pellet fraction; also recorded: inhibitor | no | decrease in the amount of translocated εPKC compared to pre-treatment with the TAT control peptide ([3]; 500 nM peptide 15 minutes, then 3 nM PMA 7 minutes, n=3, p<0.01): approximately 50%
13 | CPDYHDAGI (not fully specified; also: TAT47-57 conjugated) [scrambled ψεRACK, reference compound] | – | – | not cardioprotective and no | MARCKS phosphorylation in WT Cells [8]: No change
14 | CPYIALNVD (not fully specified (residue 1)) [Peptide 4] | – | decrease in the amount of εPKC in the pellet fraction; also recorded: inhibitor | – | –
15 | CSRIGQ [Peptide 5] | not in KO; also recorded: no effect | activator | cardioprotective and yes | translocation of εPKC in hearts in vivo [4]: caused translocation of εPKC
16 | CTATKQKT (not fully specified; also: TAT47-57 carrier linked via Cys disulfide) [Peptide 6] | weak activator | activator | cardioprotective and yes | MARCKS phosphorylation in WT Cells [8]: activator
17 | CVYVIIDL (not fully specified (residue 1)) [Peptide 13] | increased MARCKS phosphorylation; also recorded: activator | activator | not cardioprotective and no | –
18 | CYGRKKRRQRRR (TAT carrier peptide with N-terminal cysteine) [reference compound] | no effect | no effect | – | Cardioprotective ex vivo [1, 10]: no; Cardioprotective ex vivo ([1]; 1 μM TAT-conjugated peptide 10 minutes prior to 40 minutes global ischemia, 60 minutes reperfusion (peptide 9: 30 minutes ischemia), † and ‡ = trend towards cardioprotective (n = 5, n = 3), listed as TAT): not cardioprotective; MARCKS phosphorylation in WT Cells [8]: no effect
19 | EAVGLQPT (peptide derived from eta PKC) | – | – | – | Activity (known PKC-modulating activity) [9]: inhibitor
20 | HETPLGYD (peptide derived from eta PKC) | – | – | – | Activity (known PKC-modulating activity) [9]: activator
